Source: paper PMC10167348, “Structural mechanisms of TRPM7 activation and inhibition” (Nature Communications, 2023)
Read-outs that look alike come from different tables or passages of the source.

Legend:
Assay in all cases: Aequorin-based Ca2+ influx assay, inhibition of TRPM7-mediated Ca2+ influx
Assay type in all cases: cell-based
TRPM7 WT = molecular target: T1, TRPM7 WT (Mus musculus, UniProt Q923J1)
T1 construct: expressed in transfected cells; host or cells: HEK 293T
Method: (§1) Measurements of [Ca^2+]i were performed as reported previously with several modifications[2],[52],[54]. HEK 293T cells (mycoplasma test negative, ATCC #CRL3216) were maintained at 37 °C and 5% CO2 in DMEM supplemented with 10% fetal calf serum, 100 µg/ml streptomycin and 100 U/ml penicillin (all from Thermo Fisher Scientific). Cells cultured in six-well plates (~60% confluence) were transfected with 2 µg/dish Trpm7 plasmid DNA and 0.1 µg/dish pG5A plasmid DNA encoding eGFP fused to Aequorea victoria aequorin, using Lipofectamine 2000 (Thermo Fisher Scientific). Twenty-four hours after transfection, the cells were washed with Mg^2+-free HEPES-buffered saline (Mg^2+-free HBS) containing 140 mM NaCl, 6 mM KCl, 0.5 mM CaCl2, 10 mM HEPES (pH 7.4) and 5 mM glucose, and mechanically resuspended in the Mg^2+-free HBS. For reconstitution of aequorin, cell suspensions were incubated with 5 µM coelenterazine (Biaffin GmbH) in the Mg^2+-free HBS for 30 min at room temperature. Cells were washed twice by centrifugation at 600 rpm for 5 min (Heraeus Pico 17 microcentrifuge, Thermo Fisher Scientific), resuspended in the Mg^2+-free HBS and aliquoted into 96-well plates (1 × 10^5 cells per well). Luminescence was detected at room temperature using a FLUOstar OPTIMA microplate reader (BMG LABTECH GmbH). To monitor the NS8593- and VER155008-induced inhibition of TRPM7-mediated Ca^2+ influx, the extracellular concentration of Ca^2+ was increased to 5 mM by injecting the CaCl2-containing Mg^2+-free HBS in the absence or presence of the inhibitors. […] To study activation by naltriben, TRPM7-transfected cells were exposed to Mg^2+-free HBS containing different concentrations of the agonist. The experiments were terminated by lysing cells with 0.1% (v/v) Triton X-100 in the Mg^2+-free HBS to record the total bioluminescence. The bioluminescence rates (counts/s) were analyzed at 1-s intervals and calibrated as [Ca^2+]i values using the following equation:1 p[Ca^2+]i=0.332588(−log(k))+5.5593 where k represents the rate of aequorin consumption, i.e., counts/s divided by the total number of counts.
(§2) To determine the IC50 values for NS8593 and VER155008 (EC50 for naltriben), the data were fitted with the following logistic equation:2 Ec=Emin+Emax+Emin/1+c^h/IC50^h where E(c) is the functional effect at the concentration c of the compound, Emin is the minimal effect, Emax is the maximal effect, IC50 (EC50) is the concentration of the compound that produces the half-maximal effect, and h is the Hill coefficient. Fitting of dose-response curves was performed using GraphPad Prism 8.4.0. Data are presented as the mean ± SEM.

TRPM7-A981L = molecular target: T2, TRPM7-A981L (Mus musculus, UniProt Q923J1, A981L)
T2 construct: expressed in transfected cells; host or cells: HEK 293T
T2 sequence (Q923J1 whole entry A981L): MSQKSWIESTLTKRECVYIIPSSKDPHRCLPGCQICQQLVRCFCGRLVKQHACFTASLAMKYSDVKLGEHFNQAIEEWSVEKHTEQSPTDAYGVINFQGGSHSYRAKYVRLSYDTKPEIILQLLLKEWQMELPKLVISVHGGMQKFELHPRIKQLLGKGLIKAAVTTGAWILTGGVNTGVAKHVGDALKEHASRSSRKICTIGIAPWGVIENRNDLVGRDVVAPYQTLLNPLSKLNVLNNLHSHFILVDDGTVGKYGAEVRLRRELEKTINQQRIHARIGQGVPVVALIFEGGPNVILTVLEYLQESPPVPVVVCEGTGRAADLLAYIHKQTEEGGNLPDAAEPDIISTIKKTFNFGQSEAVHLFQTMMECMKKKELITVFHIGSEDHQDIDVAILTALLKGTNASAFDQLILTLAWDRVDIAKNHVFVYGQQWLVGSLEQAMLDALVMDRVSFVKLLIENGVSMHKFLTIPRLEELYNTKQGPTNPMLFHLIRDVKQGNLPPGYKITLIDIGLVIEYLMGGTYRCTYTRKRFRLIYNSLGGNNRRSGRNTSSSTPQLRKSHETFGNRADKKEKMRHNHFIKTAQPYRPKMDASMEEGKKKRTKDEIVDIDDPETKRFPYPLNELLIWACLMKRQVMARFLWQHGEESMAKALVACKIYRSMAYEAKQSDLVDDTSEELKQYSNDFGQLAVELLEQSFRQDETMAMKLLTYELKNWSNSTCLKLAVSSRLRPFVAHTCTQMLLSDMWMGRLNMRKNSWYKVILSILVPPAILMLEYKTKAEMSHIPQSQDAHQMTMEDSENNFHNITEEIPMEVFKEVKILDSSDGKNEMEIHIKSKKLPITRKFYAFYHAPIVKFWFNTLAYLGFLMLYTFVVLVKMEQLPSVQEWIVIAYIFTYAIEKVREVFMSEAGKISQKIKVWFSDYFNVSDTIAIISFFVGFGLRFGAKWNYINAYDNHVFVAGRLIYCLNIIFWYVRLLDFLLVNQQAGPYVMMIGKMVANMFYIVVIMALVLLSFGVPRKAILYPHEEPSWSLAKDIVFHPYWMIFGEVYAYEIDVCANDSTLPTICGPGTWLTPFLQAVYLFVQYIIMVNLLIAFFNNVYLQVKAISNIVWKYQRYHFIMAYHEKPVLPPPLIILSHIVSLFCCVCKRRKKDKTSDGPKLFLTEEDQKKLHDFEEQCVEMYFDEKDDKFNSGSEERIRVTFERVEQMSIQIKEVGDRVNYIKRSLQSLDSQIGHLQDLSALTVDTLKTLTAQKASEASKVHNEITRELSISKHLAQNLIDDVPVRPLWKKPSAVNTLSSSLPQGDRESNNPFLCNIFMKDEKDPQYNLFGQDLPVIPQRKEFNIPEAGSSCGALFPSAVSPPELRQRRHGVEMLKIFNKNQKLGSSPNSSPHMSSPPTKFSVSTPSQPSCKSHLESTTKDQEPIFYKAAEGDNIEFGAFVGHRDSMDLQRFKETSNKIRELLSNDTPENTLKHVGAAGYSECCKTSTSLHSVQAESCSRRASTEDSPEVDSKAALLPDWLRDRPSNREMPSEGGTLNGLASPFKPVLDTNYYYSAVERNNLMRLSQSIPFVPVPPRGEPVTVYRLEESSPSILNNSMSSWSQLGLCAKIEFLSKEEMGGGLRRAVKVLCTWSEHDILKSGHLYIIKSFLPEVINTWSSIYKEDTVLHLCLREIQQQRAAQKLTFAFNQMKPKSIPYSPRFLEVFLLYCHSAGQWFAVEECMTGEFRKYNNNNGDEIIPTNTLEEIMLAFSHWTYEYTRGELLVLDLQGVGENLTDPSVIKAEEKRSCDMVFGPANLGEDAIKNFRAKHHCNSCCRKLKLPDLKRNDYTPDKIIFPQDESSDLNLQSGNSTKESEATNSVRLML
Method: as §1, §2

TRPM7-A981V = molecular target: T3, TRPM7-A981V (Mus musculus, UniProt Q923J1, A981V)
T3 construct: expressed in transfected cells; host or cells: HEK 293T
T3 sequence (Q923J1 whole entry A981V): as the sequence (Q923J1 whole entry A981L) above, with L981V counted along it
Method: as §1, §2

TRPM7-W1111A = molecular target: T4, TRPM7-W1111A (Mus musculus, UniProt Q923J1, W1111A)
T4 construct: expressed in transfected cells; host or cells: HEK 293T
T4 sequence (Q923J1 whole entry W1111A): as the sequence (Q923J1 whole entry A981L) above, with L981A, W1111A counted along it
Method: as §1, §2

TRPM7-N1098Q = molecular target: T5, TRPM7-N1098Q (Mus musculus, UniProt Q923J1, N1098Q)
T5 construct: expressed in transfected cells; host or cells: HEK 293T
T5 sequence (Q923J1 whole entry N1098Q): as the sequence (Q923J1 whole entry A981L) above, with L981A, N1098Q counted along it
Method: as §1, §2

TRPM7-M991A = molecular target: T6, TRPM7-M991A (Mus musculus, UniProt Q923J1, M991A)
T6 construct: expressed in transfected cells; host or cells: HEK 293T
T6 sequence (Q923J1 whole entry M991A): as the sequence (Q923J1 whole entry A981L) above, with L981A, M991A counted along it
Method: as §1, §2

[1] = [NS8593] 7.0 µM, replicate values, read-out: TRPM7 activity, 100%
[2] = [NS8593] 0.3 µM, replicate values, read-out: TRPM7 activity, 100%
[3] = [NS8593] 0.7 µM, replicate values, read-out: TRPM7 activity, 100%
[4] = [NS8593] 1.0 µM, replicate values, read-out: TRPM7 activity, 100%
[5] = [NS8593] 3.0 µM, replicate values, read-out: TRPM7 activity, 100%

T1 sequence (Q923J1 whole entry): as the sequence (Q923J1 whole entry A981L) above, with L981A counted along it

remaining activity at 7 µM (TRPM7 WT; [1]): 0% | remaining activity at 30 µM (TRPM7 WT; [NS8593] 30.0 µM, replicate values, read-out: TRPM7 activity, 100%): 0% | remaining activity at 50 µM (TRPM7 WT; [NS8593] 50.0 µM, replicate values, read-out: TRPM7 activity, 100%): 0% | Hill coefficient (TRPM7 WT; antagonist, mean ± SEM): –1.73 ± 0.26 | IC50 (TRPM7 WT; antagonist, mean ± SEM): 0.91 ± 0.08 µM | remaining activity at 0.3 µM (TRPM7-A981L; [2]): 105% | remaining activity at 0.7 µM (TRPM7-A981L; [3]): 114% | remaining activity at 1 µM (TRPM7-A981L; [4]): 112% | remaining activity at 3 µM (TRPM7-A981L; [5]): 99.4% | Hill coefficient (TRPM7-A981L; antagonist, mean ± SEM): –1.61 ± 0.45 | IC50 (TRPM7-A981L; antagonist, mean ± SEM): 11.6 ± 2.75 µM | remaining activity at 0.3 µM (TRPM7-A981V; [2]): 98.9% | remaining activity at 0.7 µM (TRPM7-A981V; [3]): 97.4% | remaining activity at 7 µM (TRPM7-A981V; [1]): 81.9% | Hill coefficient (TRPM7-A981V; antagonist, mean ± SEM): –1.45 ± 0.50 | IC50 (TRPM7-A981V; antagonist, mean ± SEM, read-out: IC50): 21.9 ± 12.3 µM | remaining activity at 0.5 µM (TRPM7-W1111A; [NS8593] 0.5 µM, replicate values, read-out: TRPM7 activity, 100%): 103% | remaining activity at 0.7 µM (TRPM7-W1111A; [3]): 103% | remaining activity at 1 µM (TRPM7-W1111A; [4]): 98.1% | remaining activity at 3 µM (TRPM7-W1111A; [5]): 62.5% | remaining activity at 7 µM (TRPM7-W1111A; [1]): 50.3% | Hill coefficient (TRPM7-W1111A; antagonist, mean ± SEM): –1.54 ± 0.24 | IC50 (TRPM7-W1111A; antagonist, mean ± SEM): 5.14 ± 0.45 µM | remaining activity at 0.3 µM (TRPM7-N1098Q; N1097Q (so in the source), [NS8593] 0.3 µM, replicate values, read-out: TRPM7 activity, 100%): 90.4% | remaining activity at 0.5 µM (TRPM7-N1098Q; N1097Q (so in the source), [NS8593] 0.5 µM, replicate values, read-out: TRPM7 activity, 100%): 95% | remaining activity at 0.7 µM (TRPM7-N1098Q; N1097Q (so in the source), [NS8593] 0.7 µM, replicate values, read-out: TRPM7 activity, 100%): 87.7% | remaining activity at 1 µM (TRPM7-N1098Q; N1097Q (so in the source), [NS8593] 1.0 µM, replicate values, read-out: TRPM7 activity, 100%): 82.4% | remaining activity at 5 µM (TRPM7-N1098Q; N1097Q (so in the source), [NS8593] 5.0 µM, replicate values, read-out: TRPM7 activity, 100%): 64.3% | remaining activity at 7 µM (TRPM7-N1098Q; N1097Q (so in the source), [NS8593] 7.0 µM, replicate values, read-out: TRPM7 activity, 100%): 59.4% | remaining activity at 10 µM (TRPM7-N1098Q; N1097Q (so in the source), [NS8593] 10.0 µM, replicate values, read-out: TRPM7 activity, 100%): 43.2% | TRPM7 activity, 100% (TRPM7-N1098Q; N1097Q (so in the source), [NS8593] 50.0 µM, replicate values): 0.0% | remaining activity at 50 µM (TRPM7-N1098Q; N1097Q (so in the source), [NS8593] 50.0 µM, replicate values, read-out: TRPM7 activity, 100%): 0% | Hill coefficient (TRPM7-N1098Q; N1098Q, antagonist, mean ± SEM): –0.93 ± 0.20 | IC50 (TRPM7-N1098Q; N1098Q, antagonist, mean ± SEM): 20.5 ± 10.7 µM | remaining activity at 0.7 µM (TRPM7-M991A; M991A in the presence of 10 µM VER155008, [NS8593] 0.7 µM, replicate values, read-out: TRPM7 activity, 100%): 77% | remaining activity at 1 µM (TRPM7-M991A; M991A in the presence of 10 µM VER155008, [NS8593] 1.0 µM, replicate values, read-out: TRPM7 activity, 100%): 61.9% | remaining activity at 3 µM (TRPM7-M991A; M991A in the presence of 10 µM VER155008, [NS8593] 3.0 µM, replicate values, read-out: TRPM7 activity, 100%): 17.1% | remaining activity at 5 µM (TRPM7-M991A; M991A in the presence of 10 µM VER155008, [NS8593] 5.0 µM, replicate values, read-out: TRPM7 activity, 100%): 11.9% | remaining activity at 1 µM (TRPM7-M991A; M991A without VER155008, [NS8593] 1.0 µM, replicate values, read-out: TRPM7 activity, 100%): 28.8% | Hill coefficient (TRPM7-M991A; M991A, antagonist, no added second inhibitor, mean ± SEM): –1.24 ± 0.15 | IC50 (TRPM7-M991A; M991A, antagonist, no added second inhibitor, mean ± SEM, read-out: IC50): 0.59 ± 0.05 µM | Hill coefficient (TRPM7-M991A; M991A, in the presence of 10 µM VER155008, mean ± SEM): –1.43 ± 0.11
Structure (SMILES): c1ccc2c(c1)CCC[C@H]2Nc1nc2ccccc2[nH]1 [NS8593]
